Consider 3 compounds from publication PMC7059793, “Novel Chemical Scaffolds to Inhibit the Neutral Amino Acid Transporter B^0AT1 (SLC6A19), a Potential Target to Treat Metabolic Diseases” (Frontiers in Pharmacology, 2020).

The target in assay [1] is T1, B^0AT1 (Homo sapiens, UniProt Q695T7).
T1 construct: expressed in transfected cells
T1 sequence (Q695T7 1-634): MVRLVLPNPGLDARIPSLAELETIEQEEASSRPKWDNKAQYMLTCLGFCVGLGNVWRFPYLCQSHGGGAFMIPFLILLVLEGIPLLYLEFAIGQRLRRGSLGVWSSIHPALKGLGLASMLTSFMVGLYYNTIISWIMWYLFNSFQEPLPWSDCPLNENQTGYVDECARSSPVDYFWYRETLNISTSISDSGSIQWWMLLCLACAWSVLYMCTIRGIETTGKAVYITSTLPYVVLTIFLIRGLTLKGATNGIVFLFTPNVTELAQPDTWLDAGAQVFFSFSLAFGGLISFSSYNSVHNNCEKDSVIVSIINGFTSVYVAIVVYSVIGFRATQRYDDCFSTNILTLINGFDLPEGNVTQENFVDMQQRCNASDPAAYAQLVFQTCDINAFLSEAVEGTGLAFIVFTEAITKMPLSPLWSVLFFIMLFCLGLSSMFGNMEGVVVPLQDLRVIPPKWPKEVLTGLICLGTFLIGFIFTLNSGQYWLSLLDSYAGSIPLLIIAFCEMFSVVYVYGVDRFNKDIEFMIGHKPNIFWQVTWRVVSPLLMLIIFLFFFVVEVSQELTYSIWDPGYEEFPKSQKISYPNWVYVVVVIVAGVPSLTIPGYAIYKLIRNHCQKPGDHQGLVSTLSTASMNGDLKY
T1 sequence (Q9HBJ8 15-222 partner): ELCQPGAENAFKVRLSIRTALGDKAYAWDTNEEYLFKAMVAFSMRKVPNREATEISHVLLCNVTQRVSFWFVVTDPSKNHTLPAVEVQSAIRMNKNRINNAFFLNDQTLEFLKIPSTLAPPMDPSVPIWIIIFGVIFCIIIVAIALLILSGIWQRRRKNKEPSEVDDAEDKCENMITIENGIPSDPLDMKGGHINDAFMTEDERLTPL
Briefly: FLIPR assay with inhibitors alone in the absence of substrate (substrate test) in CHO-BC cells. Type of assay: cell-based. The note with it: 30 μM, baseline 100 RFU. The method, then:
Membrane depolarisation induced by amino acid transport was monitored using a FLIPR® kit (Molecular Devices, R8042 BLUE DYE). Before the assay, CHO-BC cells were seeded out at a density of 60,000 cells/well and maintained in a flat transparent bottom 96-well plate (Corning) overnight. After washing three times with Hank’s balanced salt solution (136.6 mM NaCl, 5.4 mM KCl, 0.44 mM KH2PO4, 2.7mM Na2HPO4, 1.26mM CaCl2, 0.5mM MgCl2, 0.4 mM MgSO4, 10mM HEPES, pH 7.5, supplemented with 5 mM glucose, abbreviated HBSS + G), cells in each well were incubated for 30 min at room temperature in 50 µl of HBSS pH 7.5 containing 5 mM glucose and compounds as indicated, together with 50 µl of dye-loading buffer provided with the kit. […] Fluorescence was detected at room temperature using a PerkinElmer multimode Plate Reader, with an excitation wavelength of 530 nm and emission wavelength of 565 nm.
Figure 6 Specificity and efficacy of B^0AT1 inhibitors. […] Although structurally unrelated to the substrates of the transporter, compounds E4, E18, and CB3 are highly specific.

In assay [2] the target is T2, LAT1 (Homo sapiens, UniProt Q01650).
T2 construct: endogenous in cells; host or cells: 143B TK- cells (human osteosarcoma)
As to the kind of experiment: Na+-independent [14C]leucine uptake in 143B cells. The class given is cell-based. The note with it: inhibitor at 10 μM and 50 μM. The method, then:
CHO-BC cells with passage numbers from 3 to 10 were used in radio-labelled uptake assays. Before the assay, the cells were seeded out in 35 mm dishes (Corning) and maintained for 48–72 h until reaching 80–90% confluence. To initiate transport, the culture medium was removed and the cells washed three times with HBSS + G. Subsequently, cells were incubated with HBSS + G, radiolabelled substrates (150 μM L-[U-^14C]leucine or 150 μM L-[U-^14C]isoleucine) and inhibitors as indicated in the figures or table in a 37°C water bath for 6 min. To terminate transport, cells were washed three times with ice-cold HBSS pH 7.5. For measuring sodium-independent uptake, NaCl in Hank’s buffer was replaced by NMDG-Cl. Cells were then harvested by homogenizing with 500 µl of 0.1 M HCl. An aliquot of 400 µl was used for scintillation counting and the remainder for protein quantification. To investigate inhibition of ASCT2, uptake of 100 μM [^14C]glutamine was measured in 143B cells in the absence and presence of inhibitor (at 10 μM and 50 μM). To measure inhibition of LAT1, uptake of [^14C]leucine was measured in HBSS + G in which NaCl was replaced by NMDG-Cl in 143B cells in the absence and presence of inhibitor (at 10 μM and 50 μM).
To investigate the specificity of the compounds further, we tested them in human 143B osteosarcoma cells, which we have extensively characterised previously and used for pharmacological analysis ([Broer et al., 2018]). Na^+-dependent glutamine transport in 143B cells is largely mediated by ASCT2 (SLC1A5). Na^+-independent transport of leucine, by contrast, is mediated entirely by LAT1.

Assay [3] has as its target T3, B^0AT1 (Mus musculus, UniProt Q9D687).
T3 construct: from tissue; host or cells: small intestine of C57/BL6J female mice, inverted 1 cm sections
Briefly: Na+-dependent leucine uptake in inverted sections of mouse intestine. The note with it: 50 μM inhibitor, 150 μM [14C]leucine. The text has this: For uptake assays with inverted sections of mouse small intestine, 5–7 months old C57/BL6J female mice were sacrificed by cervical dislocation (Animal ethics protocol A2016/41, Australian National University). The small intestine was removed and the intestinal lumen was rinsed with ice-cold 0.9% NaCl. Subsequently, the small intestine was inverted on a metal rod to expose the mucosa. The inverted intestine was then cut into 1 cm pieces and fitted onto enzyme spatulas, which were immersed in HBSS pH 7.5 supplemented with 1 mM glutamine and protease inhibitor (Roche Complete). After washing twice in modified HBSS pH 7.5 (containing 10% NaCl + 90% NMDG-Cl for Na^+-dependent uptake and 100% NMDG-Cl for Na^+-independent uptake, both buffers supplemented with 1 mM glutamine) to remove residual compounds, the segments were pre-incubated in the same buffer in the presence of 50 µM of transport inhibitor and protease inhibitors for 15 min. At the end of the pre-incubation, the segments were transferred for 30 s into uptake buffer at 37°C (HBSS pH 7.5 supplemented with 150 μM [^14C]leucine and 50 µM transport inhibitor). For Na^+-dependent uptake regular HBSS was used, for Na^+-independent uptake NaCl was replaced by NMDG-Cl. Subsequently, the segments were rinsed three times in ice-cold HBSS pH 7.5 and lysed in 400 µl of 10% SDS. After 2–3 h, the lysed tissues were analyzed by scintillation counting.
To test whether the novel B^0AT1 inhibitors block the transporter in a more physiological environment, we studied leucine uptake in inverted sections of mouse intestine ( Figure 6C ). We established previously that Na^+-dependent leucine uptake (blue bars) in this system is mediated by B^0AT1 ([Broer et al., 2011]). In addition leucine uptake has a Na^+-independent transport component (salmon coloured bars), which is most likely mediated by rbat/b^0,+AT. Because of variability between animals, all data were normalized to uninhibited controls from the same animal.

T2 sequence (Q01650 whole entry): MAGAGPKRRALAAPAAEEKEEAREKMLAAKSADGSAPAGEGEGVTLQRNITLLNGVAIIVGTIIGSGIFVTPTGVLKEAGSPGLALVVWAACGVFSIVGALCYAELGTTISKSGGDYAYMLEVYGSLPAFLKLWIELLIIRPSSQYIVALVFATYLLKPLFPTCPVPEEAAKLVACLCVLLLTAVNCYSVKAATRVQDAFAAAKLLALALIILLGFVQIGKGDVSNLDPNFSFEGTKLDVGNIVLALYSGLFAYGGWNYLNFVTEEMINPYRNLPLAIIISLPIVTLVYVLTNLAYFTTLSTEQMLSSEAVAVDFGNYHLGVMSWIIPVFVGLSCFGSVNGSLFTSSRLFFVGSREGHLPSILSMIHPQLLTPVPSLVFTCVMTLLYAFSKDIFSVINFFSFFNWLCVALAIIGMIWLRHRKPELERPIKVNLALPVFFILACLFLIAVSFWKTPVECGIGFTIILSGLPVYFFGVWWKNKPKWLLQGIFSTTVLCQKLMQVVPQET
T2 sequence (P08195 102-630 partner): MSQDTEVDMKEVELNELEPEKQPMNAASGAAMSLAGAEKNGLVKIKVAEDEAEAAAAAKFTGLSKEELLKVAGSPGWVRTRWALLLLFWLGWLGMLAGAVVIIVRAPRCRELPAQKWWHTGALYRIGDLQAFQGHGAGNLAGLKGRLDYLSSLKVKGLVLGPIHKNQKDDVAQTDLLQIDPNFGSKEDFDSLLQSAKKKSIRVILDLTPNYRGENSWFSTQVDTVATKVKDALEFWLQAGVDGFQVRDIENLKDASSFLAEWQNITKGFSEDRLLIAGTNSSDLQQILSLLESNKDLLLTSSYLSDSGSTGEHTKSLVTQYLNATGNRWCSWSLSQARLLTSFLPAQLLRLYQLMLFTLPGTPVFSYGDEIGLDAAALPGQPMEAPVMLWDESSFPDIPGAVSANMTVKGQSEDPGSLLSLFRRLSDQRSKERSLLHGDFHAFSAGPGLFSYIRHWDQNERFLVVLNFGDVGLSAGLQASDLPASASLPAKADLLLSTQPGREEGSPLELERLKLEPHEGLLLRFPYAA
T3 sequence (Q9D687 whole entry): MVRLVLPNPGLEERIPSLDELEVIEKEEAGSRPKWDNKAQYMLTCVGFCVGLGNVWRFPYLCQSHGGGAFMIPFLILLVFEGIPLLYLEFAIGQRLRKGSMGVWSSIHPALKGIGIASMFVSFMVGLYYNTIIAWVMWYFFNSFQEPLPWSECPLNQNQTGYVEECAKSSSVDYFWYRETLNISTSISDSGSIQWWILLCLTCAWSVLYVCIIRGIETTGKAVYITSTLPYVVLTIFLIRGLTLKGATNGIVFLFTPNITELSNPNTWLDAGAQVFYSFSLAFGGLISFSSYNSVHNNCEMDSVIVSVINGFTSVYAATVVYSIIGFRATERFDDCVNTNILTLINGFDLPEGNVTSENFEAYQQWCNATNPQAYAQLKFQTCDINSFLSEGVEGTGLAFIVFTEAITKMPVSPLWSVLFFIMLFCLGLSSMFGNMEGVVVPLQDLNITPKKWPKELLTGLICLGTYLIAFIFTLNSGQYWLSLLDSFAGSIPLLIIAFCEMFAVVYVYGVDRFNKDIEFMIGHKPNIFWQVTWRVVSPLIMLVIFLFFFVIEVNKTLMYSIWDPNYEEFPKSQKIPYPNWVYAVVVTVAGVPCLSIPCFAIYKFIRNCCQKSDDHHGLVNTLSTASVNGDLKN
T3 sequence (Q8R0I0 18-805 partner): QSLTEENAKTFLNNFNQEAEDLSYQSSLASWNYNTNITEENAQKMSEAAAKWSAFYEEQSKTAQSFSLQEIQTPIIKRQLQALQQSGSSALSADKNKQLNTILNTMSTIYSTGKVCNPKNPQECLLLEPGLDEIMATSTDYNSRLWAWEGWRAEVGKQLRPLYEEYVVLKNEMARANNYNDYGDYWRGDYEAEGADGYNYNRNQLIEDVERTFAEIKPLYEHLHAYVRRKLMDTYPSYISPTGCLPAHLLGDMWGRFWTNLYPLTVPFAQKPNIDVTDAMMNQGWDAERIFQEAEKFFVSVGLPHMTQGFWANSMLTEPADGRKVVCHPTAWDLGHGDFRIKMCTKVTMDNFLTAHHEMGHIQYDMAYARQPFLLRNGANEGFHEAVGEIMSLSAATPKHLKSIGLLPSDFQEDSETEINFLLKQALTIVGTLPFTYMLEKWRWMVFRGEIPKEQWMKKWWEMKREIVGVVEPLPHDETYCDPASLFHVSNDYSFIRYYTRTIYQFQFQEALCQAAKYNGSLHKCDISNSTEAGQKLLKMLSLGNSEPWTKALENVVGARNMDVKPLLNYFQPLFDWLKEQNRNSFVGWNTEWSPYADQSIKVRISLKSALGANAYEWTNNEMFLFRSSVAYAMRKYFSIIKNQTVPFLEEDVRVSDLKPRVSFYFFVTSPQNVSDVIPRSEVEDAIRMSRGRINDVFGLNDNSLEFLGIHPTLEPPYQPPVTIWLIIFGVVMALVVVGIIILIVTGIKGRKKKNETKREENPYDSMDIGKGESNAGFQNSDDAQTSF

Consider `Cc1cc(C(=O)Nc2ccc(Cl)cc2C(F)(F)F)no1` [CB3], for which the “Fluorescence signal when tested alone (no substrate)” value in assay [1] is listed as “did not increase fluorescence above the baseline”. The “Inhibition of Na+-independent leucine uptake (LAT1)” value in assay [2] is given as “failed to inhibit”. In addition, in assay [3], the “Inhibition of Na+-dependent leucine uptake (B^0AT1) ex vivo” value was “more potent”.
On the same counts, the results for `Cc1cc(OCC(=O)NC(C)C)cc(C)c1Cl` [Compound E4] are “did not increase fluorescence above the baseline”, “failed to inhibit” and “limited capacity to inhibit B^0AT1”.
On the same counts, the results for `COc1ccccc1Nc1nc2ccccc2s1` [Compound E18] are “did not increase fluorescence above the baseline”, “failed to inhibit” and “more potent”.
